Experimental data from patent US12403195B2, “Sensitizing cells to proton radiation” (Humanetics Corporation, priority 2017, dated 2025).
Like-named read-outs stand apart in the source and are kept apart here.

How the values were obtained:
H1299 human NSCLC cells = test: Clonogenic cell survival after radiation, H1299 cells; type: cell-based; details: for Genistein (D0): 5 μM nanoparticulate genistein 24 hours before radiation; for DMF (Dose Modifying Factor): 5 μM nanoparticulate genistein vs vehicle
From the text: (§1) In the experiments described herein, a R10.5M5 double scattered proton beam (a proton beam with a maximum range of 10.5 cm where the SOBP comprises the final 5 cm) was utilized with precise positioning of culture dishes at specific points at the entrance, middle, and end of the SOBP. For this beam, the “low LET” was at 2 cm depth, corresponding to about 4 keV/μM, and the high LET was at 10 cm depth, corresponding to about 30 keV/μM. As used herein, the term “low LET” refers to about one to about ten (e.g., about one to three, two to four, three to five, four to six, five to seven, six to eight, seven to nine, or eight to ten) keV/μM unrestricted LET as determined from tables of proton stopping power in liquid water, available from the National Institute of Standards and Technology (stopping power and range tables for protons; “PSTAR”). The term “high-LET” refers to about 20 to 40 (e.g., 20 to 25, 25 to 30, 30 to 35, or 35 to 40) keV/μM, again as determined from PSTAR unrestricted LET tables.
Studies were conducted to determine whether a nanoparticulate genistein formulation affects cellular radiosensitivity to protons with increasing LET. Normal and cancer cell lines were exposed to low, intermediate, or high LET proton radiation. These experiments used the H1299 and H460 NSCLC cell lines, which are relevant to lung cancer research during medical radiation exposure as well as nonmedical or accidental radiation exposure. These cell lines were derived from human cancer patients and have well-known radiobiologic properties, with H1299 being relatively less radiosensitive. Both lines harbor Ras pathway activating mutations (H460, KRAS; H1299, NRAS). MRC5 human lung fibroblasts also were used as representative normal cells. Each cell line was obtained from the American Type Culture Collection (ATCC) and tested for mycoplasma regularly. Clonogenic cell survival studies were performed as described elsewhere (Cengel et al., Neoplasia 9(4):341-348, 2007). Briefly, cells were plated 24 hours prior to radiation at about 50% confluence. […] Cells were radμated using either 250 KVp x-rays or protons with lower vs. higher LET. To vary the proton LET, cell dishes were placed at a depth of 2 cm (D2, low LET) or 10 cm (D10, high LET) in a R10.5M5 double scattered proton beam—a double scattered proton beam with a maximum range of 10.5 cm and a modulated depth of 5 cm, meaning that the Spread-out Bragg peak (SOBP) began roughly at a depth of 5.5 cm. In this configuration, the D2 and D10 positions corresponded to the entrance and terminal portions of the SOBP, respectively. After exposure to radiation, cells were trypsinized into a single cell suspension and re-plated at various densities without nanoparticulate genistein. About two weeks later (typically 13 to 16 days, depending on colony size), plates were rinsed and stained using crystal violet/ethanol, and colonies were enumerated using an Oxford Optronix automated colony counter with a minimum threshold size of 50 cells to define a colony. […]
(§2) Relative radiosensitivity was numerically compared using a standard variable, D0 (the dose of radiation needed to reduce the surviving fraction by a factor of 1/e), which was determined from the positive solution to the quadratic equation of the form: βD^2+αD−1=0, where α and β are determined from the LQ survival curve fit as above. The Dose Modifying Factor (DMF) was determined by the quotient: […]

[1] = test system: MRC5 normal human lung fibroblasts; test: Clonogenic cell survival after radiation, MRC5 cells; type: cell-based; details: for Genistein (D0): 5 μM nanoparticulate genistein 24 hours before radiation; for DMF (Dose Modifying Factor): 5 μM nanoparticulate genistein vs vehicle
From the text: as §1
(§3) Studies were conducted to determine whether a nanoparticulate genistein formulation affects cellular radiosensitivity to protons with increasing LET. Normal and cancer cell lines were exposed to low, intermediate, or high LET proton radiation. These experiments used the H1299 and H460 NSCLC cell lines, which are relevant to lung cancer research during medical radiation exposure as well as nonmedical or accidental radiation exposure. These cell lines were derived from human cancer patients and have well-known radiobiologic properties, with H1299 being relatively less radiosensitive. Both lines harbor Ras pathway activating mutations (H460, KRAS; H1299, NRAS). MRC5 human lung fibroblasts also were used as representative normal cells. Each cell line was obtained from the American Type Culture Collection (ATCC) and tested for mycoplasma regularly. Clonogenic cell survival studies were performed as described elsewhere (Cengel et al., Neoplasia 9(4):341-348, 2007). Briefly, cells were plated 24 hours prior to radiation at about 50% confluence. […] Cells were radμated using either 250 KVp x-rays or protons with lower vs. higher LET. […]
as §2

[2] = test system: H460 human non-small cell lung cancer (NSCLC) cells; test: Clonogenic cell survival after radiation, H460 cells; type: cell-based; details: for Genistein (D0): 5 μM nanoparticulate genistein 24 hours before radiation; for DMF (Dose Modifying Factor): 5 μM nanoparticulate genistein vs vehicle, radiosensitization defined as DMF>1.1
From the text: as §1, §3, §2

[3] = humans; compared to formulations containing non-micronized genistein; cited from earlier work
[4] = mice; compared to formulations containing non-micronized genistein; cited from earlier work
[5] = canines; compared to formulations containing non-micronized genistein; cited from earlier work
[6] = High LET Protons (D10, 10 cm depth)

O=c1c(-c2ccc(O)cc2)coc2cc(O)cc(O)c12 [Genistein, 5,7-dihydroxy-3-(4-hydroxyphenyl)-chromen-4-one]
Genistein (D0) (H1299 human NSCLC cells; [6]): 3.03
DMF (Dose Modifying Factor) (H1299 human NSCLC cells; High LET Protons, radiosensitization defined as DMF>1.1): 1.35
Genistein (D0) (H1299 human NSCLC cells; X-Rays (250 KVp)): 4.28
DMF (Dose Modifying Factor) (H1299 human NSCLC cells; X-Rays, radiosensitization defined as DMF>1.1): 0.97
DMF (Dose Modifying Factor) (H1299 human NSCLC cells; lower LET protons (D2, 2 cm depth)): 1.09
Genistein (D0) [1, 6]: 1.26
DMF (Dose Modifying Factor) ([1]; High LET Protons): 1.07
Genistein (D0) ([1]; X-Rays (250 KVp)): 1.38
DMF (Dose Modifying Factor) ([1]; X-Rays): 1.01
Genistein (D0) [2, 6]: 2.23
DMF (Dose Modifying Factor) ([2]; High LET Protons): 1.04
Genistein (D0) ([2]; X-Rays (250 KVp), D0 = dose reducing surviving fraction by 1/e): 2.41
DMF (Dose Modifying Factor) ([2]; X-Rays): 1.07
oral bioavailability [3]: increased oral bioavailability
oral bioavailability [4]: increased oral bioavailability
oral bioavailability [5]: increased oral bioavailability
